The source of these data is PMC8252765, “Human Oxygenase Variants Employing a Single Protein Fe^II Ligand Are Catalytically Active” (Angewandte Chemie (International Ed. in English), 2021).

Assay [1] concerns the target T1, H725A His6-AspH315-758 (Homo sapiens, UniProt Q12797, H725A).
T1 construct: containing H679A or H725A His6-AspH315-758 variant (0.2 μM); made in house; host or cells: E. coli BL21 (DE3), pET-28a(+)
T1 sequence (Q12797 315-758 H725A): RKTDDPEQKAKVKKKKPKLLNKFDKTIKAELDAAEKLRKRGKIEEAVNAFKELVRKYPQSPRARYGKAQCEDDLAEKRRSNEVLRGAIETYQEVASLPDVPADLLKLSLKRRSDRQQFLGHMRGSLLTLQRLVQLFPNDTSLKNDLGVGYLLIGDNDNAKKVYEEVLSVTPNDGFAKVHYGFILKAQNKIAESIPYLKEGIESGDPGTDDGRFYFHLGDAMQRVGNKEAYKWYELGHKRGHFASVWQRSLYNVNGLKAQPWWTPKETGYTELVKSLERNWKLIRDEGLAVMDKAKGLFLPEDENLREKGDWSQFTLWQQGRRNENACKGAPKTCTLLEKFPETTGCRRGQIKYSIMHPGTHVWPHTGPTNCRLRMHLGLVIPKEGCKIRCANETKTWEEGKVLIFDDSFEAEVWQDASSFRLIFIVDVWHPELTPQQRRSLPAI
The experiment in a line: Steady-state kinetics of H725A AspH by SPE-MS. In kind it is biochemical. The following applies: H725A AspH 0.2 μM, parameter for the varied (co)substrate (label), 25 mM HEPES pH 7.5, n=3. The procedure:
page 11: Supporting Figure S6. Kinetic parameters for […] AspH (continues on the following page). Turnover numbers (kapp or k ) and Michaelis constants (Kapp or K ) of the […] AspH-catalysed hydroxylation of […] peptide by SPE- MS (SPE-MS parameters are given in Section 2 of the Supporting Information). […] HEPES (pH 7.5, 20° C). […] Data are shown as the mean average of three independent runs (n = 3; mean ± standard deviation, SD). Turnover numbers (kapp or k ) were calculated from the maximum velocities (vapp or v ) values obtained, cat cat max max assuming ideal active site availability as supported by a reported active site titration of wt AspH.[4] (a) Time course of the […] AspH for Fe(II) in the absence of LAA; (c) Kapp of […] AspH for Fe(II) in the absence m of LAA. (d) Time course of the […] AspH for Fe(II) in the presence of LAA; (f) Kapp of […] AspH for Fe(II) in the m presence of LAA. […] AspH variant-catalysed hydroxylation reaction of […] (k) hydroxylation rates used to determine kinetic parameters of […] AspH for […]. […] AspH for […] peptide substrate. […]

Assay [2] deals with γ‐butyrobetaine hydroxylase. The arrangement: method as in PMID 22730246. The conditions noted are these: reported value; cited from earlier work.
The target in assay [3] is T2, H679A His6-AspH315-758 (Homo sapiens, UniProt Q12797, H679A).
T2 construct: containing H679A or H725A His6-AspH315-758 variant (0.2 μM); made in house; host or cells: E. coli BL21 (DE3), pET-28a(+)
T2 sequence (Q12797 315-758 H679A): T1 sequence (Q12797 315-758 H725A) with H365A, A411H
Kind of assay: Steady-state kinetics of H679A AspH by SPE-MS. In kind it is biochemical. The conditions noted are these: H679A AspH 0.2 μM, parameter for the varied (co)substrate (label), 25 mM HEPES pH 7.5, n=3. Here is the method: Supporting Figure S5. […] Turnover […]
numbers (kapp or k ) and Michaelis constants (Kapp or K ) of the H679A AspH variant were determined in […]
MS (SPE-MS parameters are given i n Section 2 of the Supporting Information ). Conditions: 0.2 μM H679A His6- […]
HEPES (pH 7.5, 20° C). Measurement times were normalized to the first sample injection analysed after the […]
Data are shown as the mean average of three independent runs (n = 3; mean ± standard deviation, SD).
Turnover numbers (kapp or k ) were calculated from the maximum velocities (vapp or v ) values obtained, […]
assuming ideal active site availability as supported by a reported active site titration of wt AspH.[4] […]
substrate in the absence of LAA for the shown Fe(II) concentrations (conditions: 0.2 μM H679A His6-AspH315- […]
substrate in the presence of LAA for the shown Fe(II) concentrations (conditions: 0.2 μM H679A His6-AspH315- […]

Assay [4] addresses T1, H725A His6-AspH315-758. The experiment in a line: H725A AspH variant SPE-MS inhibition assay. In kind it is biochemical.
In assay [5] the test system is wt AspH. The conditions noted are these: cited from earlier work.
Assay [6] addresses T2, H679A His6-AspH315-758. The experiment in a line: H679A AspH variant SPE-MS inhibition assay. In kind it is biochemical.
Assay [7] relates to T3, wt His6-AspH315-758.
T3 construct: Conditions: 0.1 μM wt His6-AspH315-758 using; His6 (N); made in house
Kind of assay: Steady-state kinetics of wt AspH by SPE-MS. In kind it is biochemical, human. The following applies: wt AspH 0.1 μM, parameter for the varied (co)substrate (label), 25 mM HEPES pH 7.5, 50 mM NaCl, n=3. The procedure: Supporting Figure S4. Kinetic parameters for wt AspH (continues on the following page). Turnover numbers […]
ammonium iron(II) sulfate hexahydrate (FAS, (NH 4)2Fe(SO 4)2·6H2O), both in the presence and absence of L - ascorbic acid (LAA ) monitoring the AspH-catalysed hydroxylation of the hFX-EGFD186-124-4Ser peptide (Supporting Figure S2a) by SPE-MS (SPE-MS parameters are given in Section 2 of the Supporting Information).
Conditions: 0.1 μM wt His6-AspH315-758 using
C; note, to increase enzyme activity, 50 mM NaCl was added to the reaction buffer). Measurement times were normalized to the first sample injection analysed after the addition of the Enzyme Mixture to the Substrate Mixture […]
Data are shown as the mean average of three independent runs (n = 3; mean ± standard deviation, SD). Turnover numbers (kapp) were calculated from the […]
maximum velocities (vapp ) values obtained, assuming ideal active site availability as supported by a reported […]
active site titration of wt AspH.[4]
(a) Time course of the wt AspH-catalysed hydroxylation reaction of the hFX-EGFD186-124-4Ser peptide substrate […]
and 4.0 μM hFX-EGFD1 86-124-4Ser); (b) hydroxylation rates used to determine kinetic parameters of wt AspH for Fe(II) in the absence of LAA; ( c) Kapp of wt AspH for Fe(II) in the absence of LAA.
(d) Time course of the wt AspH-catalysed hydroxylation reaction of the hFX-EGFD186-124-4Ser peptide substrate in the presence of LAA for the shown Fe(II) concentrations (conditions: 0.1 μM wt His6-AspH315-758, 100 μM […]
parameters of wt AspH for Fe(II) in the presence of LAA; (f) Kapp of wt AspH for Fe(II) in the presence of LAA. […]
(g) Time course of the wt AspH-catalysed hydroxylation reaction of the hFX-EGFD186-124-4Ser peptide substrate […]
(1 picture or pasted object on this page, not shown here)

Setting [8] is: 0.1 μM H725A AspH, 4.0 μM hFX-EGFD1_86-124-4Ser, 215 μM 2OG, 10 μM Fe^II, SPE-MS, n=2, read-out: IC50.
The mark [9] stands for this setting: 0.1 μM H679A AspH, 4.0 μM hFX-EGFD1_86-124-4Ser, 110 μM 2OG, 4 μM Fe^II, SPE-MS, n=2, read-out: IC50.

Positions count from the first letter of the chain named. Read-outs that look alike come from different tables or passages of the source.

For `O=C(O)CCC(=O)C(=O)O` [2OG, 2‐oxoglutarate], the Kmapp came to 211 ± 65 µM in assay [1] (with LAA (400 μM)) and 109 ± 20 µM in assay [3] (with LAA (400 μM)). For the same compound, the kcatapp came to 0.08 ± 0.01 s⁻¹ in assay [1] (with LAA (400 μM)) and 0.18 ± 0.01 s⁻¹ in assay [3] (with LAA (400 μM)). In addition, the “2OG Kmapp‐value” in assay [2] is 150 to 470 µM.
As for `[Cl-].[Cl-].[Co+2]` [CoCl2], the half-maximal inhibitory concentration (IC50) was 3000 ± 500 nM in assay [4] (n=2, read-out: IC50); 400 ± 200 nM in assay [5]; 1500 ± 200 nM in assay [6] (n=2, read-out: IC50).
For the compound `[Cl][Mn][Cl]` [MnCl2], the concentration for half-maximal inhibition (IC50) was greater than 40000 nM in assay [4] (setting [8]); 5100 ± 1100 nM in assay [5] (wt AspH, 2 μM Fe^II, 3 μM 2OG); 23100 ± 8600 nM in assay [6] (setting [9]).
Regarding `O=S(=O)([O-])[O-].[Ni+2]` [NiSO4], the values for the half-maximal inhibitory concentration (IC50) in assay [4] (read-out: IC50), in assay [5] and in assay [6] (read-out: IC50) were 1800 ± 400 nM, 170 ± 80 nM and 2700 ± 400 nM, respectively.
On to `O=C(O)CNC(=O)C(=O)O` [N‐oxalyl‐glycine (NOG), N‐oxalylglycine], for which the concentration for half-maximal inhibition (IC50) entry in assay [4] (0.1 μM H725A AspH, 4.0 μM hFX-EGFD1_86-124-4Ser, 215 μM 2OG, 10 μM Fe^II, SPE-MS, n=2) was “inactive”; in assay [4] (0.1 μM H725A AspH, 4.0 μM hFX-EGFD1_86-124-4Ser, 215 μM 2OG, 10 μM Fe^II, SPE-MS, n=2, listed as NOG) it was “does not apparently inhibit”; in assay [5], 1100 ± 300 nM; in assay [6] (0.1 μM H679A AspH, 4.0 μM hFX-EGFD1_86-124-4Ser, 110 μM 2OG, 4 μM Fe^II, SPE-MS, n=2), “inactive”; in assay [6] (0.1 μM H679A AspH, 4.0 μM hFX-EGFD1_86-124-4Ser, 110 μM 2OG, 4 μM Fe^II, SPE-MS, n=2, listed as NOG) it was “does not apparently inhibit”.
For the compound `CC(=O)[O-].CC(=O)[O-].[Zn+2]` [Zn(OAc)2], the IC50 in assay [4] (setting [8]) was 160 ± 10 nM; in assay [5] (wt AspH, 2 μM Fe^II, 3 μM 2OG), 50 ± 10 nM; in assay [6] (setting [9]) it was 160 ± 10 nM.
For the compound `O=C(O)c1ccnc(C(=O)O)c1` [pyridine‐2,4‐dicarboxylic acid], the half-maximal inhibitory concentration (IC50) in assay [4] (read-out: IC50) was 11200 ± 1400 nM; in assay [5] (wt AspH, 2 μM Fe^II, 3 μM 2OG), 30 ± 10 nM; in assay [5] (wt AspH, at 3 μM 2OG), roughly 30 nM; in assay [5] (wt AspH, at 200 μM 2OG) it was roughly 100 nM; in assay [6] (read-out: IC50) it was 130 ± 10 nM.
As for “ammonium iron(II) sulfate hexahydrate [Fe^II]”, the Kmapp was 8.1 ± 1.8 µM in assay [1] (with LAA (400 μM)); 12.3 ± 3.0 µM in assay [1] (without LAA); 4.3 ± 1.6 µM in assay [7] (with LAA (100 μM)); 7.2 ± 2.6 µM in assay [7] (without LAA); 2.7 ± 0.5 µM in assay [3] (with LAA (400 μM)); 4.4 ± 0.8 µM in assay [3] (without LAA). The kcatapp turned out to be 0.10 ± 0.01 s⁻¹ in assay [1] (with LAA (400 μM)); 0.09 ± 0.01 s⁻¹ in assay [1] (without LAA); 0.27 ± 0.04 s⁻¹ in assay [7] (with LAA (100 μM)); 0.24 ± 0.04 s⁻¹ in assay [7] (without LAA, hFX-EGFD1 peptide hydroxylation); 0.19 ± 0.01 s⁻¹ in assay [3] (with LAA (400 μM)); 0.18 ± 0.01 s⁻¹ in assay [3] (without LAA).
